According to article PMC8230051, “Molecular Cloning and Functional Characterization of Three 5-HT Receptor Genes (HTR1B, HTR1E, and HTR1F) in Chickens” (Genes, 2021):
Values belong to the compound of their own block, whether it stands above or below them.

Legend:
chicken HTR1B [1] = molecular target: T1, chicken HTR1B (Gallus gallus, UniProt D3Y1H8); test: pGL3-CRE-luciferase reporter assay, inhibition of forskolin-stimulated cAMP/PKA signaling; format: cell-based; conditions: HEK293 cells expressing chicken HTR1B, inhibition of forskolin (2 μM)-stimulated luciferase activity, 6 h, read-out: EC50, cAMP/PKA signaling pathway, HTR1B
Source text: (§1) According to our previously established methods, chicken HTR1B or HTR1E or HTR1F was transiently expressed in human embryonic kidney 293 (HEK293) cells and treated by 5-HT (10^−11 to 10^−7 M) or HTR1 agonists (CP94253, BRL54443 or LY344864, 10^−11 to 10^−5 M) for six hours. The receptor-activated signaling pathways were then examined by pGL3-CRE-luciferase (capable of monitoring cAMP/PKA signaling pathways) and pGL4-SRE-luciferase reporter systems (capable of monitoring MAPK/ERK signaling pathways). Luminescence was measured by a multimode microplate reader (TriStar LB941, EG&G Berthold, Bad Wildbad, Germany) according to the manufacturer’s instruction.
(§2) Luciferase reporter assays were performed to determine the signaling properties of HTR1B, HTR1E, and HTR1F using different ligands, including 5-HT (natural ligand), CP94253 (a selective HTR1B agonist), BRL54443 (a selective HTR1E agonist) and LY344864 (a selective HTR1F agonist) respectively. […] Using a pGL3-CRE-luciferase reporter system, the receptor-mediated inhibition of the cAMP/PKA signaling pathway was subsequently monitored as in our previous studies.
(§3) HEK293 cells were transiently co-transfected with HTR1 expression plasmid and pGL3-CRE/pGL4-SRE luciferase reporter construct, and subjected to ligand treatment for 6 h before measurement. Effects of 5-HT (A), CP94253 (B), BRL54443 (C), and LY344864 (D) (10^−11–10^−7 M, 6 h) on forskolin (2 μM)-stimulated luciferase activity of HEK293 cells expressing chicken HTR1B, HTR1E, and HTR1F, monitored by a pGL3-CRE luciferase reporter system. Effects of 5-HT (E), CP94253 (F), BRL54443 (G), and LY344864 (H) (10^−11–10^−5 M, 6 h) on luciferase activity of HEK293 cells expressing chicken HTR1B, HTR1E, and HTR1F, monitored by a pGL4-SRE luciferase reporter system. HEK293 cells co-transfected with empty pcDNA3.1(+) and luciferase reporter construct were used as a control. Each data point represents the mean ± SEM of 3 replicates.

chicken HTR1E [2] = molecular target: T2, chicken HTR1E (Gallus gallus, UniProt E1BS44); test: as above; format: cell-based
Source text: as §1, §2, §3

chicken HTR1F [3] = molecular target: T3, chicken HTR1F (Gallus gallus, UniProt A0A4P9IUX1); test: as above; format: cell-based
Source text: as §1, §2, §3

chicken HTR1B [4] = molecular target: T1, chicken HTR1B; test: pGL4-SRE-luciferase reporter assay, MAPK/ERK signaling; format: cell-based; conditions: HEK293 cells expressing chicken HTR1B, stimulation of luciferase activity, 6 h, table values marked a roughly estimated, read-out: EC50, MAPK/ERK signaling pathway, HTR1B
Source text: as §1, §3

chicken HTR1E [5] = molecular target: T2, chicken HTR1E; test: as above; format: cell-based
Source text: as §1, §3

chicken HTR1F [6] = molecular target: T3, chicken HTR1F; test: as above; format: cell-based
Source text: as §1, §3

chicken HTR1B [7] = molecular target: T1, chicken HTR1B; test: Western blot of CREB and ERK1/2 phosphorylation in transfected HEK293 cells; format: cell-based; conditions: HEK293 cells expressing HTR1B, 10 min
Method: (§4) HEK293 cells transfected with HTR1B, HTR1E or HTR1F expression plasmid were cultured on a 24-well plate at 37 °C and then treated with 5-HT for 10 min. Then, cells were lysed with 1 × passive lysis buffer (Promega). The phosphorylated ERK1/2 (pERK1/2) and CREB (pCREB) levels in cell lysates were examined by Western blot, as described in our previous studies.
(§5) In addition, Western blots were performed to elucidate these signaling properties of chicken HTR1B, HTR1E, and HTR1F. […] These findings further supported the functional coupling of the three receptors to the cAMP/PKA and MAPK/ERK signaling cascade, in agreement with previous luciferase assay results.
(§6) Figure 5 Western blot showing 5-HT treatment (100 nM, 10min) can inhibit the forskolin (FK) (2 μM)-stimulated phosphorylation levels of CREB (p-CREB) in HEK293 cells expressing chicken HTR1B, HTR1E, and HTR1F (A), and 5-HT treatment (10 μM, 10 min) can enhance phosphorylation of ERK1/2 (p-ERK1/2) in HEK293 cells expressing chicken HTR1B, HTR1E, and HTR1F (B).

chicken HTR1E [8] = molecular target: T2, chicken HTR1E; test: as above; format: cell-based; conditions: HEK293 cells expressing HTR1E, 10 min
Method: as §4, §5, §6

chicken HTR1F [9] = molecular target: T3, chicken HTR1F; test: as above; format: cell-based; conditions: HEK293 cells expressing HTR1F, 10 min
Method: as §4, §5, §6

[10] = system: cultured chicken pituitary cells; test: VIP- or forskolin-stimulated PRL secretion, Western blot; format: cell-based; conditions: 6 h; for effect on VIP-stimulated PRL secretion: VIP 5 nM; for effect on forskolin-stimulated PRL secretion: forskolin 2 μM
Method: As described in the previous experiment, anterior pituitaries were collected from 3-week-old male or female chicks; then, digested by 0.25% trypsin at 37 °C for 30 min. The dispersed pituitary cells were then cultured at a density of 5 × 10^5 cells/well on Corning® CellBIND® 48-well plates (Corning, Lowell, MA, USA) with culture medium 199 (M199, Gibco, Grand Island, NY, USA) containing 10% FBS (Gibco) at 37 °C with 5% CO2. After 18 h of culture, the culture medium was removed, and cells were treated with 120 μL M-199 containing various concentration of 5-HT (0.1 μM) or CP94253 (10 μM) or BRL54443 (10 μM) or LY344864 (10 μM) in the presence of VIP (5 nM) or forskolin (FK, 2 μM). After 6 h of treatment, the culture medium was collected for measurement of PRL secretion, and then pituitary cells were lysed with 1 × passive lysis buffer (Promega) and lysates were collected to examine intracellular PRL and β-actin levels. The protein samples were electrophoresed and transferred to the membrane, and then the standard procedures were used for protein detection. The PRL rabbit polyclonal antibody (1:500) against recombinant full-length chicken PRL were prepared in our laboratory and used to detect the PRL protein levels in our previous study.
Relative PRL levels were calculated as the ratio to the intracellular β-actin level and then expressed as a percentage of control or VIP or forskolin treatment groups. The relative mRNA level of each gene was first calculated as the ratio to that of β-actin and then expressed as fold change compared with the respective control. GraphPad Prism 7 (GraphPad Software Inc, San Diego, California, USA) was used for statistical analysis. Data were analyzed by the unpaired Student’s t-test (for two groups) or by one-way ANOVA, followed by the Dunnett’s test (for comparing treatment groups with control). Data are presented as mean ± SEM.
Figure 8 Western blot showing the effects of various selective agonists ((A): 5-HT; (B): CP94253; (C): BRL54443; (D): LY344864) on VIP (5 nM) or forskolin (FK, 2 μM)-stimulated cPRL secretion in cultured chicken pituitary cells. sPRL represents secretory PRL, and iPRL represents intracellular PRL. Protein levels were semi-quantified by densitometry, β-actin was used as an internal control. For the sPRL analysis, the 5 nM VIP or 2 μM FK treated group was regarded as 100%, while for the iPRL analysis, the control group (without any drug treatment) was regarded as 100%. Different letters indicate statistical difference between two groups (p ≤ 0.01), as determined by one-way ANOVA and a Tukey’s test. Each data point represents the mean ± SEM of three replicates (n = 3).

HTR1B = system: HTR1B; parameters: method as in PMID 10936173; conditions: human HTR1B stimulated with 5-HT; read-out: EC50, ERK activation; cited from earlier work
[11] = molecular target: guinea pig HTR1E receptor; parameters: method as in PMID 14744596; conditions: read-out: EC50, stimulation of [35S]GTPγS; cited from earlier work
human HTR1E receptor = molecular target: human HTR1E receptor; parameters: method as in PMID 14744596; conditions: read-out: EC50, stimulation of [35S]GTPγS; cited from earlier work
hens = system: hens; parameters: method as in doi:10.1016/0378-4320(78)90011-8; conditions: injection eight hours before the pre-ovulation period; cited from earlier work
HTR1F = system: HTR1F; parameters: method as in PMID 17715266; conditions: in mammals; cited from earlier work

T1 sequence (D3Y1H8 1-379): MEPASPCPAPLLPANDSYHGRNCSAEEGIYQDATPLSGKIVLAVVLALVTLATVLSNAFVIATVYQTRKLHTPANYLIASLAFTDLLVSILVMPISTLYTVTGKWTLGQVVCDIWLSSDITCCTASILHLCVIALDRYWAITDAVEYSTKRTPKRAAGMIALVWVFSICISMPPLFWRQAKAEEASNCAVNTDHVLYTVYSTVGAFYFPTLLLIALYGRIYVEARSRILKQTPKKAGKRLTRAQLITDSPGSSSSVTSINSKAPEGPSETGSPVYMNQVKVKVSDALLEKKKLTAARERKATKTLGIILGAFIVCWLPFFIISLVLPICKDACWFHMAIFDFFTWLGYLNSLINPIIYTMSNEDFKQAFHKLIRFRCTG
T2 sequence (E1BS44 1-371): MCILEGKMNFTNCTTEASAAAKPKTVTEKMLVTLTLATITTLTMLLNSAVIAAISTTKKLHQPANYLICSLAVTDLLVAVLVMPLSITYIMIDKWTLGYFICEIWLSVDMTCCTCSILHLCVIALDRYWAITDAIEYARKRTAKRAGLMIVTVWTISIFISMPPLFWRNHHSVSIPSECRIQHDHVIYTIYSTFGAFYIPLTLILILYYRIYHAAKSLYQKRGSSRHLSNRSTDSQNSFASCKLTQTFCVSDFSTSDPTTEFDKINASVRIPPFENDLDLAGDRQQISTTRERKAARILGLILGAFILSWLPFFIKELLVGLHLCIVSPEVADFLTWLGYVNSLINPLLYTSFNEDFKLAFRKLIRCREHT
T3 sequence (A0A4P9IUX1 entry or part of it): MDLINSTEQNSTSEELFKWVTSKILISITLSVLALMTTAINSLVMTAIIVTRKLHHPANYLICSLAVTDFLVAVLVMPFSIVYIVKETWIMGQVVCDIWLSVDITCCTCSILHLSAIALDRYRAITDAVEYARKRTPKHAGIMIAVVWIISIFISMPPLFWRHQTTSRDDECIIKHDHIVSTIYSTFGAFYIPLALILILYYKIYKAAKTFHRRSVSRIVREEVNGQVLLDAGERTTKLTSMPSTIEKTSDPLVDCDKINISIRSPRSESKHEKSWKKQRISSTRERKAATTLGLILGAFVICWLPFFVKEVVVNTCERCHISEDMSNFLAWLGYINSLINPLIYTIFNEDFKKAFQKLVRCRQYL

SMILES: NCCc1c[nH]c2ccc(O)cc12 [5-HT, 5-hydroxytryptamine]
- EC50 (chicken HTR1B [1]): 8 nM
- EC50 (chicken HTR1E [2]): 9.3 nM
- EC50 (chicken HTR1F [3]): 5.7 nM
- EC50 (chicken HTR1B [4]): > 800 nM
- EC50 (chicken HTR1E [5]): > 100 nM
- EC50 (chicken HTR1F [6]): > 500 nM
- effect on forskolin-stimulated CREB phosphorylation (chicken HTR1B [7]; 100 nM, forskolin 2 μM): could inhibit forskolin (2 μM)-stimulated CREB phosphorylation
- effect on ERK1/2 phosphorylation (chicken HTR1B [7]; 10 μM): could enhance ERK1/2 (44/42 kDa) phosphorylation
- effect on forskolin-stimulated CREB phosphorylation (chicken HTR1E [8]; 100 nM, forskolin 2 μM): could inhibit forskolin (2 μM)-stimulated CREB phosphorylation
- effect on ERK1/2 phosphorylation (chicken HTR1E [8]; 10 μM): could enhance ERK1/2 (44/42 kDa) phosphorylation
- effect on forskolin-stimulated CREB phosphorylation (chicken HTR1F [9]; 100 nM, forskolin 2 μM): could inhibit forskolin (2 μM)-stimulated CREB phosphorylation
- effect on ERK1/2 phosphorylation (chicken HTR1F [9]; 10 μM): could enhance ERK1/2 (44/42 kDa) phosphorylation
- effect on VIP-stimulated PRL secretion ([10]; 0.1 μM): showed no significant effect on VIP-stimulated PRL secretion
- effect on forskolin-stimulated PRL secretion ([10]; 0.1 μM): showed no significant effect on PRL release
- EC50 [11]: 13.6 ± 1.92 nM
- ovulation failure (hens): 90 % of hens

SMILES: CN1CCC(c2c[nH]c3ccc(O)cc23)CC1 [BRL54443, 3-(-1-methylpiperidin-4-yl)-1H-indol-5-ol]
- EC50 (chicken HTR1E [2]): 2.4 nM
- EC50 (chicken HTR1E [5]): 28.8 nM
- effect on VIP-stimulated PRL secretion ([10]; 10 μM): showed no significant effect on VIP-stimulated PRL secretion
- effect on forskolin-stimulated PRL secretion ([10]; 10 μM): showed no significant effect on PRL release

SMILES: CCCOc1ccc2[nH]cc(C3=CCNCC3)c2n1 [CP94253]
- EC50 (chicken HTR1B [1]): 4 nM
- EC50 (chicken HTR1B [4]): > 200 nM
- effect on VIP-stimulated PRL secretion ([10]; 10 μM): showed no significant effect on VIP-stimulated PRL secretion
- effect on forskolin-stimulated PRL secretion ([10]; 10 μM): showed no significant effect on PRL release

- EC50 (chicken HTR1F [3]; HEK293 cells expressing chicken HTR1F, pGL3-CRE-luciferase, inhibition of forskolin (2 μM)-stimulated luciferase activity, 6 h, read-out: EC50, cAMP/PKA signaling pathway, HTR1F): 1.8 nM
- EC50 (chicken HTR1F [6]; HEK293 cells expressing chicken HTR1F, pGL4-SRE-luciferase, stimulation of luciferase activity, 6 h, table values marked a roughly estimated, read-out: EC50, MAPK/ERK signaling pathway, HTR1F): > 200 nM
SMILES: CN(C)[C@@H]1CCc2[nH]c3ccc(NC(=O)c4ccc(F)cc4)cc3c2C1 [LY344864]
- effect on VIP-stimulated PRL secretion ([10]; 10 μM): could significantly inhibit VIP-stimulated PRL secretion
- effect on forskolin-stimulated PRL secretion ([10]; 10 μM): could significantly inhibit PRL secretion
- affinity for HTR1F relative to HTR1A, HTR1B, HTR1D, and HTR1E (HTR1F): ~ 100 fold
- pKd for HTR1F (HTR1F): 8.2
